Where two headings read alike, the source gives them in different places.
Tests used:
[1] = Pharmacokinetic study in rat plasma after oral administration of QJYQ (UHPLC-sMRM); assay type: in vivo, Sprague-Dawley rats
Method: Exion LC AD tandem Blueline 3500 triple quadrupole mass spectrometer (AB SCIEX, Framingham, MA, United States) was used to thirty-three compounds in rat plasma. […] The whole detailed parameters of sMRM were obtained in Supplementary Table S1.
Rat plasma (100 μL) was mixed with 10% formic acid (10 μL) and vortexed for 1 min at room temperature. ISs (10 μL) and methanol/acetonitrile (1/1, v/v) (400 μL) were added and vortexed for 5 min, then centrifuged for 10 min at 14,000 rpm and 4°C. The transported supernatant was condensed to dryness under the flow of nitrogen gas. The dried residue was reconstituted with 70% methanol (100 μL) by vortex-mixing for 5 min and centrifuging at 14,000 rpm for 10 min. Last, 2 μL of the solution were injected into the UHPLC-sMRM system.
The pharmacokinetic study was approved by the Animal Ethics Committee of Tianjin University of Traditional Chinese Medicine (TCM-LAEC2021228). Ten male Sprague-Dawley rats (weight 220–240 g) was kept at the animal center of Tianjin University of Traditional Chinese Medicine (Tianjin, China). […] The sample was transferred right away following a 10 min period of centrifugation at 7000 rpm and 4°C. All plasma samples were frozen and stored at −80°C.
All the pharmacokinetic parameters were calculated using the DAS 1.0 software (Drug and Statistics 1.0, Medical College of Wannan, China). Pharmacokinetic parameters include the maximum drug concentration in plasma (Cmax), the time to achieve maximum drug concentration (Tmax), the area under the plasma concentration-time curve (AUC), elimination half-life (T1/2), and mean residence time (MRT). The pharmacokinetic parameters were computed using the non-compartmental model. All data are expressed as mean ± standard deviation (SD). GraphPad Prism 8.0 (GraphPad Software Inc., La Jolla, CA, United States) software was used to draw the drug-time curve.

[2] = Stability of the working solution (4°C for 1 month); assay type: physicochemical
Method: (§1) The stability of analytes in plasma was evaluated by analyzing 4 QC samples (n = 6). The stability was included auto-sampler stability (keeping the sample in auto-sampler for 24 h), three times of freeze-thaw cycles stability (freezing cycle at −80°C, thawing cycle at room temperature), room temperature stability (storing samples at room temperature for 24 h), long-term stability (storing samples at −80°C for 1 month). […] Accompanying curve was established when testing the sample, calculate and compare the ratio of the actual measured concentration to the theoretical concentration, expressed in accuracy and RSD.

[3] = Stability of analytes in rat plasma (auto-sampler, freeze-thaw, room temperature, long-term); conditions: for Autosampler for 24 h Accuracy (%): autosampler 24 h; for Room temperature for 24 h Accuracy (%): room temperature 24 h; for Freeze thaw cycles Accuracy (%): three freeze-thaw cycles
Method: as §1

[4] = set-up: method as in Wang et al., 2008; Feng et al., 2017; conditions: alkaline and light and heat conditions; ref Wang et al., 2008; Feng et al., 2017; cited from earlier work
Caco-2 cell = test system: Caco-2 cell; set-up: method as in Cai et al., 2016; conditions: compared with baicalin; ref Cai et al., 2016; cited from earlier work

## COC(=O)C1=CO[C@@H](O[C@@H]2O[C@H](CO)[C@@H](O)[C@H](O)[C@H]2O)[C@H]2[C@@H]1C(=O)C[C@@H]2C [verbenalin]
[1]; rat, in vivo, po, 3.15 g/kg
  AUC(0-t): 618.13 ± 161.10 ng·h/mL
  AUC(0-∞): 669.34 ± 164.70 ng·h/mL
  Cmax: 135.83 ± 52.28 ng/mL
  MRT (0-∞): 7.95 ± 4.85 h
  MRT(0-t): 4.85 ± 0.77 h
  T1/2: 8.37 ± 2.80 h
  Tmax: 1.37 ± 0.80 h
[2]; 12.5 ng/mL
  Working solution Accuracy (%): 83.3%
[2]; 50 ng/mL
  Working solution Accuracy (%): 89.5%
[2]; 100 ng/mL
  Working solution Accuracy (%): 86.2%
[2]; 500 ng/mL
  Working solution Accuracy (%): 96.4%
[3]; 12.5 ng/mL
  Autosampler for 24 h Accuracy (%): 84.9%
  Room temperature for 24 h Accuracy (%): 104.0%
  Freeze thaw cycles Accuracy (%): 93.8%
[3]; 12.5 ng/mL, −80°C 1 month
  −80°C for 1month Accuracy (%): 89.1%
[3]; 50 ng/mL
  Autosampler for 24 h Accuracy (%): 92.5%
  Room temperature for 24 h Accuracy (%): 88.9%
[3]; 100 ng/mL
  Autosampler for 24 h Accuracy (%): 89.7%
  Room temperature for 24 h Accuracy (%): 91.2%
  Freeze thaw cycles Accuracy (%): 87.8%
[3]; 100 ng/mL, −80°C 1 month
  −80°C for 1month Accuracy (%): 95.7%
[3]; 500 ng/mL
  Autosampler for 24 h Accuracy (%): 88.3%
  Room temperature for 24 h Accuracy (%): 104.0%
  Freeze thaw cycles Accuracy (%): 88.5%
[3]; 500 ng/mL, −80°C 1 month
  −80°C for 1month Accuracy (%): 104.0%

## COc1c(O)cc(O)c2c(=O)cc(-c3ccccc3)oc12 [wogonin]
[1]; male, Sprague-Dawley, rat, plasma, po, 3.15 g/kg, rat plasma, oral QJYQ 3.15 g/kg, n = 8, mean ± SD, read-out: Tmax
  Tmax: 6.29 ± 0.76 h
[1]; male, Sprague-Dawley, rat plasma, oral QJYQ 3.15 g/kg, MRT type not specified, read-out: MRT
  MRT: > 8 h
[1]; male, Sprague-Dawley, rat plasma, oral QJYQ 3.15 g/kg, n = 8, mean ± SD
  half-life: 1.91 ± 0.09 h
[1]; male, Sprague-Dawley, rat plasma, oral QJYQ 3.15 g/kg, n = 8, mean ± SD, read-out: AUC(0-t)
  AUC(0-t): 288 ± 66.1 ng·h/mL
[1]; male, Sprague-Dawley, rat plasma, oral QJYQ 3.15 g/kg, n = 8, mean ± SD, read-out: AUC(0-∞)
  AUC(0-inf): 288 ± 66.1 ng·h/mL
[1]; male, Sprague-Dawley, rat plasma, oral QJYQ 3.15 g/kg, n = 8, mean ± SD, read-out: MRT (0-∞)
  MRT inf: 8.27 ± 1.09 h
[1]; male, Sprague-Dawley, rat plasma, oral QJYQ 3.15 g/kg, n = 8, mean ± SD, read-out: MRT(0-t)
  MRT last: 8.27 ± 1.09 h
[1]; rat plasma, oral QJYQ 3.15 g/kg, n = 8, mean ± SD
  Cmax: 38.13 ± 10.55 ng/mL
[2]; concentration 1.56 ng/mL
  Working solution Accuracy (%): 98.0%
[2]; concentration 12.5 ng/mL
  Working solution Accuracy (%): 98.9%
[2]; concentration 100 ng/mL
  Working solution Accuracy (%): 85.8%
[2]; concentration 500 ng/mL
  Working solution Accuracy (%): 100.0%
[3]; concentration 1.56 ng/mL
  Autosampler for 24 h Accuracy (%): 82.8%
  Room temperature for 24 h Accuracy (%): 98.0%
  Freeze thaw cycles Accuracy (%): 86.4%
[3]; concentration 12.5 ng/mL
  Autosampler for 24 h Accuracy (%): 111.0%
  Room temperature for 24 h Accuracy (%): 94.1%
  Freeze thaw cycles Accuracy (%): 89.6%
[3]; concentration 100 ng/mL
  Autosampler for 24 h Accuracy (%): 102.0%
  Room temperature for 24 h Accuracy (%): 89.8%
[3]; concentration 500 ng/mL
  Autosampler for 24 h Accuracy (%): 90.5%
  Room temperature for 24 h Accuracy (%): 106.0%
  Freeze thaw cycles Accuracy (%): 91.8%
[3]; −80°C for 1 month, concentration 1.56 ng/mL
  −80°C for 1month Accuracy (%): 111.0%
[3]; −80°C for 1 month, concentration 12.5 ng/mL
  −80°C for 1month Accuracy (%): 85.1%
[3]; −80°C for 1 month, concentration 100 ng/mL
  −80°C for 1month Accuracy (%): 96.0%
[3]; −80°C for 1 month, concentration 500 ng/mL
  −80°C for 1month Accuracy (%): 87.4%

## COc1c(O[C@@H]2O[C@H](C(=O)O)[C@@H](O)[C@H](O)[C@H]2O)cc(O)c2c(=O)cc(-c3ccccc3)oc12 [wogonoside]
[4]
  stability: not stable
[1]; rat, in vivo, po, 3.15 g/kg
  AUC(0-t): 73080.32 ± 34091.07 ng·h/mL
  AUC(0-∞): 73104.07 ± 34093.59 ng·h/mL
  Cmax: 5052.10 ± 3277.54 ng/mL
  MRT: greater than 8 h
  MRT (0-∞): 8.40 ± 0.83 h
  MRT(0-t): 8.39 ± 0.83 h
  T1/2: 2.67 ± 0.24 h
  Tmax: 5.89 ± 3.26 h
Caco-2 cell
  Caco-2 cell membrane permeability: greater than baicalin
[2]; 62.5 ng/mL
  Working solution Accuracy (%): 91.0%
[2]; 500 ng/mL
  Working solution Accuracy (%): 113.0%
[2]; 1000 ng/mL
  Working solution Accuracy (%): 105.0%
[2]; 5000 ng/mL
  Working solution Accuracy (%): 108.0%
[3]; 62.5 ng/mL
  Autosampler for 24 h Accuracy (%): 89.7%
  Room temperature for 24 h Accuracy (%): 83.2%
  Freeze thaw cycles Accuracy (%): 84.2%
[3]; 62.5 ng/mL, −80°C 1 month
  −80°C for 1month Accuracy (%): 83.7%
[3]; 500 ng/mL
  Autosampler for 24 h Accuracy (%): 105.0%
  Room temperature for 24 h Accuracy (%): 93.4%
[3]; 500 ng/mL, −80°C 1 month
  −80°C for 1month Accuracy (%): 113.0%
[3]; 1000 ng/mL
  Autosampler for 24 h Accuracy (%): 98.7%
  Room temperature for 24 h Accuracy (%): 85.6%
  Freeze thaw cycles Accuracy (%): 95.1%
[3]; 1000 ng/mL, −80°C 1 month
  −80°C for 1month Accuracy (%): 98.0%
[3]; 5000 ng/mL
  Autosampler for 24 h Accuracy (%): 97.5%
  Room temperature for 24 h Accuracy (%): 111.0%
  Freeze thaw cycles Accuracy (%): 90.9%
[3]; 5000 ng/mL, −80°C 1 month
  −80°C for 1month Accuracy (%): 89.1%

— publication PMC10133546, “Simultaneous determination of multiple components in rat plasma by UHPLC-sMRM for pharmacokinetic studies after oral administration of Qingjin Yiqi Granules” (Frontiers in Pharmacology, 2023)
